Measured values from patent publication US20250108038A1 (priority 2023, published 2025).
Values joined by “and” are separate entries in the source; they are usually repeats but may differ in a detail not shown here. Identical values can stand only once.

Assay: Pharmacokinetics after single oral administration to beagle dogs
Assay type: in vivo
Conditions: for Cmax of the analog (Compound I-17/I-19) / T1/2 of the analog (Compound I-17/I-19) / Tmax of the analog (Compound I-17/I-19): oral 10 mg/kg; for plasma concentration of Compound I-17/I-19 (as titled): single PO 80 mg/kg (as titled)
Description: The concentrations of the analytes in the plasma were quantified by liquid chromatography tandem mass spectrometry (LC-MS/MS).
The bioanalytical assay provided a lower limit of quantification (LLOQ) of 1.0 ng/mL and an upper limit of quantification (ULOQ) of 3000 ng/mL for all the analytes. The data of plasma concentration vs. time were analyzed using Phoenix WinNonlin 8.3 to determine the PK properties of the analytes.
The test articles were administered orally by gavage. The nominal dose volume was 5 mL/kg for both analogs.
The observation included appearance, behavior, morbidity and mortality.
Approximately 0.5 mL blood was collected at each scheduled time point from the peripheral veins.
The plasma samples were placed in microcentrifuge tubes and stored at −70+10° C. until analysis.

[1] = after single PO 80 mg/kg (so in the source) of Compound I-17/I-19, male mean

Structure (SMILES): Clc1ccc(C2(OCC3OCCO3)c3ccccc3C3=NCCN32)cc1 (centres unmarked) [Compound I-19]
- Tlast of Compound A [1]: 24.0 h
- Tmax of Compound A [1]: 1.00 h
- Cmax and AUC0-last of Compound A, compared to Compound I-17 (male and female dogs, PO): about 2.5 ×
- Cmax of the analog (Compound I-17/I-19) (female dogs): 260 ng/mL
- T1/2 of the analog (Compound I-17/I-19) (female dogs): 2.50 hours
- Tmax of the analog (Compound I-17/I-19) (female dogs): 1 hour
- Cmax of the analog (Compound I-17/I-19) (male dogs): 297 ng/mL
- T1/2 of the analog (Compound I-17/I-19) (male dogs): 1.66 hours
- Tmax of the analog (Compound I-17/I-19) (male dogs): 1 hour
- plasma concentration of Compound I-17/I-19 (single PO 10 mg/kg, 0.500 h, female individual, 10 mg/kg): 257 ng/mL and 246 ng/mL
- plasma concentration of Compound I-17/I-19 (single PO 10 mg/kg, 0.500 h, female mean): 252 ng/mL
- plasma concentration of Compound I-17/I-19 (single PO 10 mg/kg, 0.500 h, male individual, 10 mg/kg): 259 ng/mL and 195 ng/mL
- plasma concentration of Compound I-17/I-19 (single PO 10 mg/kg, 0.500 h, male mean): 227 ng/mL
- plasma concentration of Compound I-17/I-19 (single PO 10 mg/kg, 1.00 h, female individual, 10 mg/kg): 258 ng/mL and 262 ng/mL
- plasma concentration of Compound I-17/I-19 (single PO 10 mg/kg, 1.00 h, female mean): 260 ng/mL
- plasma concentration of Compound I-17/I-19 (single PO 10 mg/kg, 1.00 h, male individual, 10 mg/kg): 312 ng/mL and 281 ng/mL
- plasma concentration of Compound I-17/I-19 (single PO 10 mg/kg, 1.00 h, male mean): 297 ng/mL
- plasma concentration of Compound I-17/I-19 (single PO 10 mg/kg, 2.00 h, female individual, 10 mg/kg): 186 ng/mL and 240 ng/mL
- plasma concentration of Compound I-17/I-19 (single PO 10 mg/kg, 2.00 h, female mean): 213 ng/mL
- plasma concentration of Compound I-17/I-19 (single PO 10 mg/kg, 2.00 h, male individual): 181 ng/mL
- plasma concentration of Compound I-17/I-19 (single PO 10 mg/kg, 2.00 h, male mean): 181 ng/mL
- plasma concentration of Compound I-17/I-19 (single PO 10 mg/kg, 4.00 h, female individual, 10 mg/kg): 50.7 ng/mL and 78.2 ng/mL
- plasma concentration of Compound I-17/I-19 (single PO 10 mg/kg, 4.00 h, female mean): 64.4 ng/mL
- plasma concentration of Compound I-17/I-19 (single PO 10 mg/kg, 4.00 h, male individual, 10 mg/kg): 64.2 ng/mL and 67.7 ng/mL
- plasma concentration of Compound I-17/I-19 (single PO 10 mg/kg, 4.00 h, male mean): 66.0 ng/mL
- plasma concentration of Compound I-17/I-19 (single PO 10 mg/kg, 6.00 h, female individual, 10 mg/kg): 27.8 ng/mL and 50.5 ng/mL
- plasma concentration of Compound I-17/I-19 (single PO 10 mg/kg, 6.00 h, female mean): 39.1 ng/mL
- plasma concentration of Compound I-17/I-19 (single PO 10 mg/kg, 6.00 h, male individual, 10 mg/kg): 27.3 ng/mL and 22.7 ng/mL
- plasma concentration of Compound I-17/I-19 (single PO 10 mg/kg, 6.00 h, male mean): 25.0 ng/mL
- plasma concentration of Compound I-17/I-19 (single PO 10 mg/kg, 8.00 h, female individual, 10 mg/kg): 14.6 ng/mL and 28.7 ng/mL
- plasma concentration of Compound I-17/I-19 (single PO 10 mg/kg, 8.00 h, female mean): 21.7 ng/mL
- plasma concentration of Compound I-17/I-19 (single PO 10 mg/kg, 8.00 h, male individual, 10 mg/kg): 15.2 ng/mL and 9.16 ng/mL
- plasma concentration of Compound I-17/I-19 (single PO 10 mg/kg, 8.00 h, male mean): 12.2 ng/mL
- plasma concentration of Compound I-17/I-19 (single PO 10 mg/kg, 24.0 h, female individual): BQL
- plasma concentration of Compound I-17/I-19 (single PO 10 mg/kg, 24.0 h, male individual): BQL
- Clinical observation (single PO 10 mg/kg, beagle dogs): diarrhea at 24 hours post-dose
- plasma concentration of Compound I-17/I-19 (as titled) (0.500 h, female individual, 80 mg/kg): 160 ng/mL and 83.0 ng/mL
- plasma concentration of Compound I-17/I-19 (as titled) (0.500 h, female mean): 121 ng/mL
- plasma concentration of Compound I-17/I-19 (as titled) (0.500 h, male individual, 80 mg/kg): 102 ng/mL and 91.6 ng/mL
- plasma concentration of Compound I-17/I-19 (as titled) (0.500 h, male mean): 96.8 ng/mL
- plasma concentration of Compound I-17/I-19 (as titled) (2.00 h, female individual): 113 ng/mL
- plasma concentration of Compound I-17/I-19 (as titled) (2.00 h, female mean): 113 ng/mL
- plasma concentration of Compound I-17/I-19 (as titled) (2.00 h, male individual, 80 mg/kg): 94.9 ng/mL and 78.9 ng/mL
- plasma concentration of Compound I-17/I-19 (as titled) (2.00 h, male mean): 86.9 ng/mL
- plasma concentration of Compound I-17/I-19 (as titled) (4.00 h, female individual, 80 mg/kg): 87.3 ng/mL and 76.1 ng/mL
- plasma concentration of Compound I-17/I-19 (as titled) (4.00 h, female mean): 81.7 ng/mL
- plasma concentration of Compound I-17/I-19 (as titled) (4.00 h, male individual, 80 mg/kg): 87.4 ng/mL and 60.3 ng/mL
- plasma concentration of Compound I-17/I-19 (as titled) (4.00 h, male mean): 73.8 ng/mL
- plasma concentration of Compound I-17/I-19 (as titled) (6.00 h, female individual, 80 mg/kg): 49.1 ng/mL and 57.9 ng/mL
- plasma concentration of Compound I-17/I-19 (as titled) (6.00 h, female mean): 53.5 ng/mL
- plasma concentration of Compound I-17/I-19 (as titled) (6.00 h, male individual, 80 mg/kg): 60.4 ng/mL and 35.4 ng/mL
- plasma concentration of Compound I-17/I-19 (as titled) (6.00 h, male mean): 47.9 ng/mL
- plasma concentration of Compound I-17/I-19 (as titled) (8.00 h, female individual, 80 mg/kg): 32.5 ng/mL and 52.0 ng/mL
- plasma concentration of Compound I-17/I-19 (as titled) (8.00 h, female mean): 42.3 ng/mL
- plasma concentration of Compound I-17/I-19 (as titled) (8.00 h, male individual, 80 mg/kg): 43.8 ng/mL and 20.9 ng/mL
- plasma concentration of Compound I-17/I-19 (as titled) (8.00 h, male mean): 32.4 ng/mL
- plasma concentration of Compound I-17/I-19 (as titled) (24.0 h, female individual, 80 mg/kg): 6.70 ng/mL and 18.2 ng/mL
- plasma concentration of Compound I-17/I-19 (as titled) (24.0 h, female mean): 12.4 ng/mL
- plasma concentration of Compound I-17/I-19 (as titled) (24.0 h, male individual, 80 mg/kg): 7.39 ng/mL and 4.28 ng/mL
- plasma concentration of Compound I-17/I-19 (as titled) (24.0 h, male mean): 5.83 ng/mL
- plasma concentration of Compound I-17/I-19 (as titled) ([…] h, female mean): 116 ng/mL
- plasma concentration of Compound I-17/I-19 (as titled) ([…] h, male mean): 123 ng/mL
